molecular target: Glycogen synthase kinase-3 beta (Homo sapiens, UniProt P49841); assay: GSK3beta kinase inhibitor potency, dose response, biochemical, luminescence, cell-free homogeneous, retest (AID 434954)
Sequence (P49841 whole entry): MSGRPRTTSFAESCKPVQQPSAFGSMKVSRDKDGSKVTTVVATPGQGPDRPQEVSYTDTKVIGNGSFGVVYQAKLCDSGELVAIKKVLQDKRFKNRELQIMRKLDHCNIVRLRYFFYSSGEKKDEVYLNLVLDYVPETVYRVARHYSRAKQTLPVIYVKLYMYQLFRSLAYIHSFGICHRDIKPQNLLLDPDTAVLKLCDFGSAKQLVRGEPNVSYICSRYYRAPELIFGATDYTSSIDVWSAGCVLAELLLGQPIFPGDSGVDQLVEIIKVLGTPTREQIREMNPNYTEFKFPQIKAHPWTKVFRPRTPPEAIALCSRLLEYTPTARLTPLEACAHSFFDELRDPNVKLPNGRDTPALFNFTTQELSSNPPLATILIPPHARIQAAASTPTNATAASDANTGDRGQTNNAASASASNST

SMILES | EC50 [µM]
O=C1CN=C(c2cccs2)c2c(sc3c2CCCC3)N1 [5-Thiophen-2-yl-1,2,3,4,7,9-hexahydro-10-thia-6,9-diaza-benzo[a]azulen-8-one] | 3.09
CC(=O)Nc1ccc(S(=O)(=O)c2cc(O)ccc2O)cc1 | > 300
COc1cccc(C(N)=O)c1 | > 300
CCN(CC)S(=O)(=O)c1cccc(-n2cc(O)c(-c3ccccc3)c2N)c1 [SMR000368326] | > 300
COc1ccc(Nc2nc(N)nc(CSc3nncn3C)n2)cc1 [N-(4-methoxyphenyl)-6-{[(4-methyl-4H-1,2,4-triazol-3-yl)thio]methyl}-1,3,5-triazine-2,4-diamine] | 41.3
COc1ccccc1Nc1nc(NCCO)nc(N)c1[N+](=O)[O-] | 87.6
CC(C)CNC(=O)c1cccc(NC(=O)c2ccc(NC(=O)c3ccco3)cc2)c1 [MLS000088940] | > 300
Cc1ccc(NC2=CC(=O)CC(C)(C)C2)cc1F [MLS001198284] | > 300
COc1ccccc1/C=C/C=C1\Oc2c(ccc(O)c2CN(C)C)C1=O [(2Z)-7-[(dimethylamino)methyl]-6-hydroxy-2-[(E)-3-(2-methoxyphenyl)prop-2-enylidene]-1-benzofuran-3-one] | 33.8
COc1cccc(Nc2ncc(C#N)c(N)n2)c1 [MLS000858965] | 14.3
COc1ccc(OC)c(Nc2c3ccccc3nc3ccccc23)c1 [N-(2,5-dimethoxyphenyl)-9-acridinamine] | > 300
COC(=O)CSc1ccc2nnc(-c3ccc(OC)c(OC)c3)n2n1 | > 300
O=Cc1cn(CCC(=O)O)nc1-c1cccc2ccccc12 [3-(4-formyl-3-naphthalen-1-ylpyrazol-1-yl)propanoic acid] | > 300
O=C(c1cccnc1)C1CCCN(Cc2nc(Cc3ccccc3)no2)C1 (stereo not given) [[1-[[3-(phenylmethyl)-1,2,4-oxadiazol-5-yl]methyl]-3-piperidinyl]-(3-pyridinyl)methanone] | > 300
COc1ccc2c(c1)C(=O)Nc1cc(Cl)ccc1N2 [8-chloro-2-methoxy-5,10-dihydro-11H-dibenzo[b,e][1,4]diazepin-11-one] | > 300
CN(C)c1nc(N)c([N+](=O)[O-])c(NCCO)n1 | > 300
Cc1ccc(-n2c(C)c([N+](=O)[O-])c3ccc(O)cc32)cc1 [2-methyl-1-(4-methylphenyl)-3-nitro-indol-6-ol] | > 300
O=c1c(O)c(-c2ccc(O)cc2)oc2cc(O)cc(O)c12 | 11.6
CC(=O)CSc1nc(-c2cccs2)c(C#N)c(=O)[nH]1 [4-oxidanylidene-2-(2-oxidanylidenepropylsulfanyl)-6-thiophen-2-yl-1H-pyrimidine-5-carbonitrile] | > 300
Nc1ncnc2c1ncn2[C@@H]1O[C@H](CO)[C@@H](O)[C@H]1N | > 300
Cc1ccccc1-n1nnc2c(=O)oc3ccccc3c21 [1-(2-methylphenyl)chromeno[3,4-d]triazol-4-one] | > 300
O=C1NC(c2cccs2)Nc2sc3c(c21)CCCC3 (stereo not given) [2-thiophen-2-yl-2,3,5,6,7,8-hexahydro-1H-[1]benzothiolo[2,3-d]pyrimidin-4-one] | > 300
O=NCc1ccc(N2CCCC2)c([N+](=O)[O-])c1 | 5.66
CC1=NN(C(=O)CCc2ccc3c(c2)OCO3)C(O)(C(F)(F)F)C1 (stereo not given) [SMR000289779] | > 300
Cc1ccc2nc3c(cc2c1)c(NC(=O)c1ccccn1)nn3CC(C)C | > 300

SMILES | EC50 [µM]
CCCCCCSc1ccc([C@H]2N[C@@](CC(C)C)(C(=O)OC)[C@H]3C(=O)N(C)C(=O)[C@@H]23)cc1 [SMR000814394] | > 300
COC(=O)C(C(=O)OC)c1ccc(NC(=O)c2cccc(Cl)c2)cc1 [dimethyl 2-{4-[(3-chlorobenzoyl)amino]phenyl}malonate] | > 300
CC(C)CCn1c(CN2CCN(c3cccc(Cl)c3)CC2)nc2c1c(=O)n(C)c(=O)n2C [SMR000017148] | > 300
O=C(NCc1cccs1)c1cc(C2CC2)on1 [SMR000127641] | > 300
CC(C)(C)NC(=O)NC(=O)COc1ccc(Br)cc1Br [SMR000254856] | > 300
CC(C)CC(CO)N1CCN(C(=O)c2ccc(Cl)c(Cl)c2)CCC1=O (stereo not given) [1-(3,4-dichlorobenzoyl)-4-(1-hydroxy-4-methylpentan-2-yl)-1,4-diazepan-5-one] | > 300
Cc1cc(C)n2nc(C(=O)OCC(=O)NC(=O)c3ccccc3)nc2n1 [SMR000716574] | > 300
c1cncc(-c2nc(NCc3ccc4c(c3)OCO4)c3ccccc3n2)c1 [N-(1,3-benzodioxol-5-ylmethyl)-2-(3-pyridinyl)-4-quinazolinamine] | > 300
O=C(O)/C=C/c1cccc2c1OCCO2 [(E)-3-(2,3-dihydro-1,4-benzodioxin-5-yl)-2-propenoic acid] | > 300
CCOC(=O)c1cnc2ccc(Cl)cc2c1Nc1ccc(S(=O)(=O)Nc2ncccn2)cc1 [ethyl 6-chloro-4-[4-(pyrimidin-2-ylsulfamoyl)anilino]quinoline-3-carboxylate] | 108
Oc1cccc(Nc2nc(-c3ccccc3)nc3ccccc23)c1 | > 300
CCOC(=O)CNC(=O)CSc1ccc2nnc(-c3ccc(F)cc3)n2n1 [MLS000684782] | > 300
CC1=C(C(=O)N2CCCCC2)C(c2cccs2)C2C(=O)CCCC2=N1 (stereo not given) [2-methyl-3-piperidin-1-ylcarbonyl-4-thiophen-2-yl-4,6,7,8-tetrahydro-1H-quinolin-5-one] | > 300
CC(C(=O)NCc1ccco1)n1cc([N+](=O)[O-])cn1 (stereo not given) [N-(2-furylmethyl)-2-(4-nitro-1H-pyrazol-1-yl)propanamide] | > 300
O=S1(=O)CC2SC(=S)N(c3ccccc3)C2C1 (stereo not given) | > 300
O=C(N1CCN(c2ccccc2F)CC1)C12CC3CC(CC(C3)C1)C2 [SMR000071700] | > 300
N#Cc1c2n(c3c(-c4ccccc4)ncnc13)CCC2 [MLS000104266] | 40
C/C(C=NNC(=O)c1nnn(-c2nonc2N)c1CN1CCCCC1)=C\c1ccccc1 [1-(4-azanyl-1,2,5-oxadiazol-3-yl)-N-[[(E)-2-methyl-3-phenyl-prop-2-enylidene]amino]-5-(piperidin-1-ylmethyl)-1,2,3-triazole-4-carboxamide] | 28.6
Cc1csc(SCC(=O)Nc2ccc(Cl)cn2)n1 [N-(5-chloropyridin-2-yl)-2-[(4-methyl-1,3-thiazol-2-yl)sulfanyl]acetamide] | 19.4
O=[N+]([O-])c1ccccc1[CH+][N-]n1c(C2CCCCC2)n[nH]c1=S [5-Cyclohexyl-4-{[1-(2-nitro-phenyl)-meth-(E)-ylidene]-amino}-4H-[1,2,4]triazole-3-thiol] | 155
Fc1ccc(CSc2nnc(-c3cccs3)o2)cc1 [SMR000003242] | > 300
CCCCOc1ccc(C=NNC(=O)c2nnn(-c3nonc3N)c2CN2CCCCCC2)cc1 [1-(4-amino-1,2,5-oxadiazol-3-yl)-5-(1-azepanylmethyl)-N-[(4-butoxyphenyl)methylideneamino]-4-triazolecarboxamide] | 55.3
COc1ccc2cc(C(=O)CS(=O)(=O)c3ccccc3)c(=O)oc2c1 [3-[2-(benzenesulfonyl)acetyl]-7-methoxychromen-2-one] | > 300
CC1(C)CC(=O)C2C(=Nc3ccccc3NC2c2cccs2)C1 (stereo not given) [9,9-dimethyl-6-thiophen-2-yl-6,8,10,11-tetrahydro-5H-benzo[b][1,4]benzodiazepin-7-one] | > 300
Cc1cccc(C(=O)NC2CC3CCCC(C2)N3Cc2ccccc2)c1 (stereo not given) [MLS001212730] | > 300

Source: BindingDB's records for doi:10.7270/Q2TX3CTT (Broad Institute, 2010)
